Laboratory results published in ChEMBL document CHEMBL1138648, “Synthesis of new N-(2-(trifluoromethyl)pyridin-4-yl)anthranilic acid derivatives and their evaluation as anticancer agents” (2004).

Tests used:
Format in all cases: functional
NCI-H322M = assay: Growth inhibitory activity against non small cell lung cancer NCI-H322M cell line was determined; details: Homo sapiens
MCF7 [1] = assay: Growth inhibitory activity against Breast cancer MCF-7 cell line was determined; details: Homo sapiens
HCC 2998 = assay: Growth inhibitory activity against colon cancer HCC2998 cell line was determined; details: Homo sapiens
Hs-578T = assay: Growth inhibitory activity against Breast cancer HS 578T cell line was determined; details: Homo sapiens
786-0 = assay: Growth inhibitory activity against Renal cancer 786-0 cell line was determined; details: Homo sapiens
NCI/ADR-RES = assay: Growth inhibitory activity against Breast cancer NCI/ADR-RES cell line was determined; details: Homo sapiens
SF-268 [2] = assay: Growth inhibitory activity against CNS cancer SF-268 cell line was determined; details: Homo sapiens
CCRF-CEM = assay: Growth inhibitory activity against Leukemia CCRF-CEM cell line was determined; details: Homo sapiens
A549 = assay: Growth inhibitory activity against non small cell lung cancer A549/ATCC cells; details: Homo sapiens
TK-10 = assay: Growth inhibitory activity against Renal cancer TK-10 cell line was determined; details: Homo sapiens
NCI-H522 = assay: Growth inhibitory activity against non small cell lung cancer H522 cell line was determined; details: Homo sapiens
SF-268 [3] = assay: In vitro percent of proliferation of vehicle treated SF-268 human CNS cell lines was determined at 0.0010 M concentration
HOP-92 = assay: Growth inhibitory activity against non small cell lung cancer HOP-92 cell line was determined; details: Homo sapiens
SK-OV-3 = assay: Growth inhibitory activity against Ovarian cancer SK-OV-3 cell line was determined; details: Homo sapiens
M14 = assay: Growth inhibitory activity against Melanoma M14 cell line was determined; details: Homo sapiens
HL-60 = assay: Growth inhibitory activity against Leukemia HL-60(TB) cell line was determined; details: Homo sapiens
UACC-62 = assay: Growth inhibitory activity against Melanoma UACC-62 cell line was determined; details: Homo sapiens
NCI-H460 [4] = assay: Growth inhibitory activity against non small cell lung cancer H460 cell line was determined; details: Homo sapiens
K562 = assay: Growth inhibitory activity against Leukemia K-562 cell line was determined; details: Homo sapiens
HCT-15 = assay: Growth inhibitory activity against colon cancer HCT-15 cell line was determined; details: Homo sapiens
NCI-H226 = assay: Growth inhibitory activity against non small cell lung cancer NCI-H226 cell line was determined; details: Homo sapiens
MCF7 [5] = assay: In vitro percent of proliferation of vehicle treated MCF-7 human breast cell lines was determined at 0.0010 M concentration
EKVX = assay: Growth inhibitory activity against non small cell lung cancer EKVX cell line was determined; details: Homo sapiens
HOP-62 = assay: Growth inhibitory activity against non small cell lung cancer HOP-62 cell line was determined; details: Homo sapiens
SR = assay: Growth inhibitory activity against Leukemia SR cell line was determined; details: Homo sapiens
MDA-MB-435 = assay: Growth inhibitory activity against Breast cancer MDA-MB-435 cell line was determined; details: Homo sapiens
HCT-116 = assay: Growth inhibitory activity against colon cancer HCT116 cell line was determined; details: Homo sapiens
DU-145 = assay: Growth inhibitory activity against Prostate cancer DU-145 cell line was determined; details: Homo sapiens
SF-539 = assay: Growth inhibitory activity against CNS cancer SF-539 cell line was determined; details: Homo sapiens
PC-3 = assay: Growth inhibitory activity against Prostate cancer PC-3 cell line was determined; details: Homo sapiens
OVCAR-5 = assay: Growth inhibitory activity against Ovarian cancer OVCAR-5 cell line was determined; details: Homo sapiens
MDA-MB-231 = assay: Growth inhibitory activity against Breast cancer MDA-MB-231/ATCC cell line was determined; details: Homo sapiens
RPMI-8226 = assay: Growth inhibitory activity against Leukemia RPMI-8226 cell line was determined; details: Homo sapiens
OVCAR-3 = assay: Growth inhibitory activity against Ovarian cancer OVCAR-3 cell line was determined; details: Homo sapiens
SK-MEL-5 = assay: Growth inhibitory activity against Melanoma SK-MEL-5 cell line was determined; details: Homo sapiens
A498 = assay: Growth inhibitory activity against Renal cancer A498 cell line was determined; details: Homo sapiens
SNB-19 = assay: Growth inhibitory activity against CNS cancer SNB-19 cell line was determined; details: Homo sapiens
BT-549 = assay: Growth inhibitory activity against Breast cancer BT-549 cell line was determined; details: Homo sapiens
HT-29 = assay: Growth inhibitory activity against colon cancer HT-29 cell line was determined; details: Homo sapiens
NCI-H23 = assay: Growth inhibitory activity against non small cell lung cancer NCI-H23 cell line was determined; details: Homo sapiens
SW-620 = assay: Growth inhibitory activity against colon cancer SW-620 cell line was determined; details: Homo sapiens
OVCAR-8 = assay: Growth inhibitory activity against Ovarian cancer OVCAR-8 cell line was determined; details: Homo sapiens
SNB-75 = assay: Growth inhibitory activity against CNS cancer SNB-75 cell line was determined; details: Homo sapiens
KM12 = assay: Growth inhibitory activity against colon cancer KM12 cell line was determined; details: Homo sapiens
SN12C = assay: Growth inhibitory activity against Renal cancer SN12C cell line was determined; details: Homo sapiens
U-251 = assay: Growth inhibitory activity against CNS cancer U251 cell line was determined; details: Homo sapiens
LOX IMVI = assay: Growth inhibitory activity against Melanoma LOX IMVI cell line; details: Homo sapiens
OVCAR-4 = assay: Growth inhibitory activity against Ovarian cancer OVCAR-4 cell line was determined; details: Homo sapiens
SF-295 = assay: Growth inhibitory activity against CNS cancer SF-295 cell line was determined; details: Homo sapiens
NCI-H460 [6] = assay: In vitro percent of proliferation of vehicle treated NCI-H460 human lung cell lines was determined at 0.0010 M concentration
CAKI-1 [7] = assay: Growth inhibitory activity against Renal cancer CAKI-1 cell line […]; details: Homo sapiens
MOLT-4 = assay: Growth inhibitory activity against Leukemia MOLT-4 cell line was determined; details: Homo sapiens
ACHN = assay: Growth inhibitory activity against Renal cancer ACHN cell line was determined; details: Homo sapiens
UACC-257 = assay: Growth inhibitory activity against Melanoma UACC-257 cell line was determined; details: Homo sapiens
RXF 393 = assay: Growth inhibitory activity against Renal cancer RXF 393 cell line was determined; details: Homo sapiens
COLO 205 = assay: Growth inhibitory activity against colon cancer COLO 205 cell line was determined; details: Homo sapiens
CAKI-1 [8] = assay: Growth inhibitory activity against Renal cancer CAKI-1 cell line was determined; details: Homo sapiens
SK-MEL-28 = assay: Growth inhibitory activity against Melanoma SK-MEL-28 cell line was determined; details: Homo sapiens

SMILES: O=C(Oc1ccccc1Cl)c1ccccc1Nc1ccnc(C(F)(F)F)c1
- GI50 (NCI-H322M): 4.8 µM
- GI50 (MCF7 [1]): 0.28 µM
- GI50 (HCC 2998): 2.2 µM
- GI50 (Hs-578T): 0.32 µM
- GI50 (786-0): 0.25 µM
- GI50 (NCI/ADR-RES): 0.32 µM
- GI50 (SF-268 [2]): 0.22 µM
- GI50 (CCRF-CEM): 0.03 µM
- GI50 (A549): 0.73 µM
- GI50 (TK-10): 0.65 µM
- GI50 (NCI-H522): 0.51 µM
- Proliferation (SF-268 [3]): 17%
- GI50 (HOP-92): 0.02 µM
- GI50 (SK-OV-3): 8 µM
- GI50 (M14): 0.03 µM
- GI50 (HL-60): 0.47 µM
- GI50 (UACC-62): 0.31 µM
- GI50 (NCI-H460 [4]): 0.66 µM
- GI50 (K562): 0.05 µM
- GI50 (HCT-15): 0.22 µM
- GI50 (NCI-H226): 0.29 µM
- Proliferation (MCF7 [5]): 6%
- GI50 (EKVX): 8.6 µM
- GI50 (HOP-62): 2.7 µM
- GI50 (SR): 0.03 µM
- GI50 (MDA-MB-435): 0.13 µM
- GI50 (HCT-116): 1.8 µM
- GI50 (DU-145): 4.3 µM
- GI50 (SF-539): 0.58 µM
- GI50 (PC-3): 0.3 µM
- GI50 (OVCAR-5): 0.46 µM
- GI50 (MDA-MB-231): 0.32 µM
- GI50 (RPMI-8226): 0.24 µM
- GI50 (OVCAR-3): 0.22 µM
- GI50 (SK-MEL-5): 0.26 µM
- GI50 (A498): 3.9 µM
- GI50 (SNB-19): 7.4 µM
- GI50 (BT-549): 0.34 µM
- GI50 (HT-29): 0.39 µM
- GI50 (NCI-H23): 0.25 µM
- GI50 (SW-620): 0.36 µM
- GI50 (OVCAR-8): 0.24 µM
- GI50 (SNB-75): 0.68 µM
- GI50 (KM12): 0.33 µM
- GI50 (SN12C): 0.33 µM
- GI50 (U-251): 0.27 µM
- GI50 (LOX IMVI): 0.02 µM
- GI50 (OVCAR-4): 0.26 µM
- GI50 (SF-295): 0.24 µM
- Proliferation (NCI-H460 [6]): 3%
- GI50 (CAKI-1 [7]): 0.29 µM
- GI50 (MOLT-4): 0.02 µM
- GI50 (ACHN): 0.28 µM

SMILES: CCOC(=O)CNC(=O)c1ccccc1Nc1ccnc(C(F)(F)F)c1
- GI50 (NCI-H322M): 32 µM
- GI50 (MCF7 [1]): 25 µM
- GI50 (UACC-257): 69 µM
- GI50 (HCC 2998): 71 µM
- GI50 (Hs-578T): 46 µM
- GI50 (786-0): 29 µM
- GI50 (NCI/ADR-RES): 51 µM
- GI50 (SF-268 [2]): 20 µM
- GI50 (CCRF-CEM): 2.2 µM
- GI50 (A549): 29 µM
- GI50 (TK-10): 37 µM
- GI50 (NCI-H522): 22 µM
- Proliferation (SF-268 [3]): 59%
- GI50 (HOP-92): 0.05 µM
- GI50 (SK-OV-3): 29 µM
- GI50 (M14): 25 µM
- GI50 (HL-60): 33 µM
- GI50 (UACC-62): 17 µM
- GI50 (NCI-H460 [4]): 20 µM
- GI50 (K562): 18 µM
- GI50 (HCT-15): 29 µM
- GI50 (NCI-H226): 100 µM
- Proliferation (MCF7 [5]): 60%
- GI50 (EKVX): 31 µM
- GI50 (HOP-62): 21 µM
- GI50 (SR): 17 µM
- GI50 (MDA-MB-435): 39 µM
- GI50 (HCT-116): 21 µM
- GI50 (DU-145): 27 µM
- GI50 (SF-539): 28 µM
- GI50 (PC-3): 22 µM
- GI50 (OVCAR-5): 26 µM
- GI50 (MDA-MB-231): 24 µM
- GI50 (RPMI-8226): 11 µM
- GI50 (OVCAR-3): 24 µM
- GI50 (SK-MEL-5): 10 µM
- GI50 (A498): 64 µM
- GI50 (SNB-19): 30 µM
- GI50 (BT-549): 36 µM
- GI50 (HT-29): 29 µM
- GI50 (RXF 393): 19 µM
- GI50 (NCI-H23): 22 µM
- GI50 (SW-620): 20 µM
- GI50 (OVCAR-8): 26 µM
- GI50 (KM12): 27 µM
- GI50 (SN12C): 24 µM
- GI50 (COLO 205): 19 µM
- GI50 (U-251): 18 µM
- GI50 (LOX IMVI): 17 µM
- GI50 (OVCAR-4): 35 µM
- GI50 (SF-295): 71 µM
- Proliferation (NCI-H460 [6]): 19%
- GI50 (MOLT-4): 16 µM
- GI50 (CAKI-1 [8]): 16 µM
- GI50 (SK-MEL-28): 23 µM
- GI50 (ACHN): 34 µM
